The subject of data set [1] is Plasmodium falciparum. Nature of the data set: Antiplasmodial activity against chloroquine-sensitive Plasmodium falciparum assessed as vacuolar accumulation ratio. It is filed as functional.
For data set [2], the system named is Plasmodium falciparum. Nature of the data set: Antiplasmodial activity against chloroquine-sensitive Plasmodium falciparum after 30 to 34 hr by schizont maturation assay. It is filed as functional, organism-based.
Data set [3] in a line: Inhibition of beta-hematin polymerization after 24 hr by spectrophotometric analysis. It is filed as physicochemical.

A word on the IC50: it is the concentration needed to halve the response being measured. The low end stands for greater potency in that assay, the high end for weaker potency in that assay. With `Brc1cc2c(c3ncccc13)Oc1ncccc1O2`, the Ratio in the data set with Plasmodium falciparum [1] was found to be 1.03. For the same compound, the IC50 came to 6.4 µM in the data set with Plasmodium falciparum [2] and 2170 µM in data set [3].

With `CCN(CC)CCCC(C)Nc1ccnc2cc(Cl)ccc12` (stereo not given) [CHLOROQUINE], the 50% inhibitory concentration (IC50) in data set [3] worked out at 1890 µM. This lies in the millimolar range.

For the compound `Brc1cc2c(c3ncccc13)Oc1cc(Br)c3cccnc3c1O2`, the Ratio in the data set with Plasmodium falciparum [1] is listed as 1.01. Also, the figures for the IC50 (in the data set with Plasmodium falciparum [2]; in data set [3]) were 7.4 µM and 2780 µM, respectively.

`Clc1ncccc1Oc1cc2c(c3ncccc13)Oc1ncccc1O2`: the Ratio in the data set with Plasmodium falciparum [1] came to 1.2. Also, the values for the IC50 (with Plasmodium falciparum [2]; in data set [3]) were 3.7 µM and 2110 µM, respectively.

For the origin of these results see ChEMBL document CHEMBL3046805, “Synthesis and antimalarial evaluation of novel pyridine quinoline hybrids” (Med Chem Res, 2008).
